Source: patent publication US6551632B2, “Methods and compositions for treating inflammatory bowel disease” (priority 1997, dated 2003)

System: Patients with Inflammatory Bowel Disease
Experiment: Treatment of patients with inflammatory bowel disease using a combination of anti-atypical mycobacterial agents (Example 1)
Method: Fifteen patients, aged 13 to 58, were treated with various protocols of antimycobacterial agents. Twelve patients had Crohn's disease and three ulcerative colitis. Presence of Mycobacterium paratuberculosis was identified in nine of these patients. A combination of clarithromycin (250 mg to 1.5 grams per day), rifabutin (150 mg to 750 mg per day) and clofazimine (3 mg/kg to 10 mg/kg) was used.
After four months of treatment, five patients were examined colonoscopically.
In these three patients, a combination of clarithromycin and rifabutin (same dosages as above) together with added clofazimine, 2 mg per kg, made up a preferred therapy. […] No prednisone, azathioprine or 5ASA compounds were used. […] This dose was increased at one stage to 50 mg per kg in an attempt to reverse the inflammatory process and then reduced to 10 mg per kg. […] In yet a further patient four drugs were used simultaneously because of resistance to clarithromycin. Azithromycin, 500 mg each morning (range 250-1,500 mg) was used in combination with rifabutin, clofazimine, and ethambutol.

SMILES: CC[C@@H](CO)NCCN[C@@H](CC)CO [ethambutol]
- clinical response after rifabutin was changed to ethambutol (one patient, ethambutol 400 mg twice daily, raised to 50 mg per kg, then 10 mg per kg, with clarithromycin and clofazimine): reversal of the inflammatory process with loss of diarrhoea, loss of bleeding, and ultimately loss of urgency

SMILES: CO[C@H]1/C=C/O[C@@]2(C)Oc3c(C)c(O)c4c(c3C2=O)C2=NC3(CCN(CC(C)C)CC3)NC2=C(NC(=O)/C(C)=C\C=C\[C@H](C)[C@H](O)[C@@H](C)[C@@H](O)[C@@H](C)[C@H](OC(C)=O)[C@@H]1C)C4=O [rifabutin]
- sensitivity (adverse reaction) (one patient on the combination therapy): marked headaches and fever
